# According to patent publication US20230167073A1 (Teijin Pharma Limited, priority 2020, published 2023):
# Biological target: T1, Human TRPC6 (Homo sapiens, UniProt Q9Y210)
# T1 construct: expressed in transfected cells
# T1 sequence (Q9Y210 1-931): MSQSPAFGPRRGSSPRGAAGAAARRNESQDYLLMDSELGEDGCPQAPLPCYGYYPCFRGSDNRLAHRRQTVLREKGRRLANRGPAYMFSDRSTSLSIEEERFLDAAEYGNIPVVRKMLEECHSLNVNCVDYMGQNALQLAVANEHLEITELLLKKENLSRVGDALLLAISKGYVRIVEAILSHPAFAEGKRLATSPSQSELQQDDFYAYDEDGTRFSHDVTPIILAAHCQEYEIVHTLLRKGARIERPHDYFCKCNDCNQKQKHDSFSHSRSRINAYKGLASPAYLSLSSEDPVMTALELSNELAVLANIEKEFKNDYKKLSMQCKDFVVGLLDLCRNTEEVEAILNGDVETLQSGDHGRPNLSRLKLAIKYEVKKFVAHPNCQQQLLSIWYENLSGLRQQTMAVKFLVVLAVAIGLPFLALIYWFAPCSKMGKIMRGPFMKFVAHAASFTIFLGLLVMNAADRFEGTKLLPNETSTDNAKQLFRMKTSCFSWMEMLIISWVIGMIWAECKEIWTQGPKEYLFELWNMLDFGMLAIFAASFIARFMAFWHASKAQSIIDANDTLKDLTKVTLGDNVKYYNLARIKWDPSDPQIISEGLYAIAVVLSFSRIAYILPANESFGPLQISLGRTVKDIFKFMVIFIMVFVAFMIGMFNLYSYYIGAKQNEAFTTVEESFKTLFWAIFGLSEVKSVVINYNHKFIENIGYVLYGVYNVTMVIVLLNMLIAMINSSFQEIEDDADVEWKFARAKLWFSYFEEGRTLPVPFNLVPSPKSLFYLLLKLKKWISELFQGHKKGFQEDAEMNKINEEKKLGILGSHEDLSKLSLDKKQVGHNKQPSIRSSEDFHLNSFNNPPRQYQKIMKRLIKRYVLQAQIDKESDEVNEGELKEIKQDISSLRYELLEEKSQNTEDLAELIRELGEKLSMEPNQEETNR
# Experiment: Evaluation of TRPC6 channel inhibitory activity (1), FLIPR Calcium 5 Assay Kit, OAG stimulation (Compound Nos. 1-1293)
# Assay type: cell-based
# Conditions: Human TRPC6 stably-expressing cells, OAG 30 μM, FLIPR Calcium 5 Assay Kit; read-out: Inhibitory activity (pIC50 class) (converted)
# Outline: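 TRPC6 (human) stable cells, 24 h culture; Ca5 no-wash dye + probenecid 30 min; cpd 20 min; OAG 30 μM final; ΔF (pre-cpd min to post-OAG max); 0%/100% = no cpd / no cpd + no OAG; 4PL → pIC50, binned +/++/+++.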
row,IC50,SMILES
1,< 0.01 µM,"N#Cc1ccc(-c2ccc(CCN)cc2)c(Oc2cnnc(-c3ccccc3)c2)c1 [Compound 69, 4-[4-(2-aminoethyl)phenyl]-3-(6-phenylpyridazin-4-yl)oxybenzonitrile]"
2,< 0.01 µM,"Cn1nc(-c2ccccn2)cc1Oc1cc(C#N)ccc1-c1ccc(CC(C)(C)N)cn1 [compound 338, 4-[5-(2-amino-2-methylpropyl)pyridin-2-yl]-3-(2-methyl-5-pyridin-2-ylpyrazol-3-yl)oxybenzonitrile]"
3,< 0.01 µM,"CCc1cc(Oc2cc(C#N)ccc2-c2ccc(CCN)cn2)n(C)n1 [Compound 288, 4-[5-(2-aminoethyl)pyridin-2-yl]-3-(5-ethyl-2-methylpyrazol-3-yl)oxybenzonitrile]"
4,> 1 µM,"N#Cc1ccc(-n2ccc(CN)n2)c(Oc2cnnc(-c3ccccc3)c2)c1 [Compound 135, 4-[3-(aminomethyl)pyrazol-1-yl]-3-(6-phenylpyridazin-4-yl)oxybenzonitrile]"
5,0.01 to 1 µM,"Cc1nc(Oc2cc(C#N)ccc2-c2ccc(CCN)cc2)cc(-c2ccnn2C)n1 [Compound 20, 4-[4-(2-aminoethyl)phenyl]-3-[2-methyl-6-(2-methylpyrazol-3-yl)pyrimidin-4-yl]oxybenzonitrile]"
6,> 1 µM,"Cn1nc(C2CC2)cc1Oc1cc(C#N)ccc1-c1cccc2c(N)noc12 [compound 594, 4-(3-amino-1,2-benzoxazol-7-yl)-3-(5-cyclopropyl-2-methylpyrazol-3-yl)oxybenzonitrile]"
7,> 1 µM,"Cn1nc(C(=O)O)cc1Oc1cc(C#N)ccc1-c1ccc(CCN)cn1 [compound 316, 5-[2-[5-(2-aminoethyl)pyridin-2-yl]-5-cyanophenoxy]-1-methylpyrazole-3-carboxylic acid]"
8,0.01 to 1 µM,"CC(C)n1nc(C2CC2)cc1Oc1cc(C#N)ccc1-c1ncc(CCN)cn1 [compound 380, 4-[5-(2-aminoethyl)pyrimidin-2-yl]-3-(5-cyclopropyl-2-propan-2-ylpyrazol-3-yl)oxybenzonitrile]"
9,< 0.01 µM,"CCN(CC(F)F)c1cc(Oc2cc(C#N)ccc2-c2ncc(CCN)cn2)n(C)n1 [Compound No. 875, 4-[5-(2-Aminoethyl)pyrimidin-2-yl]-3-[5-[2,2-difluoroethyl(ethyl)amino]-2-methylpyrazol-3-yl]oxybenzonitrile]"
10,> 1 µM,"Cn1nc(C2CC2)cc1Oc1cc(C#N)ccc1-c1cccc(CCN)n1 [compound 481, 4-[6-(2-aminoethyl)pyridin-2-yl]-3-(5-cyclopropyl-2-methylpyrazol-3-yl)oxybenzonitrile]"
11,0.01 to 1 µM,"N#Cc1ccc(-c2ncc(CCN)cn2)c(Cn2cc(N3CCCC3)cn2)c1 [Compound No. 1198, 4-[5-(2-Aminoethyl)pyrimidin-2-yl]-3-[(4-pyrrolidin-1-ylpyrazol-1-yl)methyl]benzonitrile]"
12,0.01 to 1 µM,"Cc1c(Oc2cc(C#N)ccc2-c2ncc(CCN)cn2)cnn1C(C)C [compound 806, 4-[5-(2-aminoethyl)pyrimidin-2-yl]-3-(5-methyl-1-propan-2-ylpyrazol-4-yl)oxybenzonitrile]"
13,0.01 to 1 µM,"N#Cc1ccc(-c2ccc(CCN)cc2)c(Oc2cnnc(-c3ccccc3OC(F)(F)F)c2)c1 [Compound 117, 4-[4-(2-aminoethyl)phenyl]-3-[6-[2-(trifluoromethoxy)phenyl]pyridazin-4-yl]oxybenzonitrile]"
14,> 1 µM,"Cc1nc(Oc2cc(C#N)ccc2-c2ncc(CCN)cn2)cc(O[C@@H]2CCOC2)n1 [compound 889, 4-[5-(2-aminoethyl)pyrimidin-2-yl]-3-[2-methyl-6-[(3R)-oxolan-3-yl]oxypyrimidin-4-yl]oxybenzonitrile]"
15,< 0.01 µM,"Cn1nc(C2CCOCC2)cc1Oc1cc(C#N)ccc1-c1ccc(CCN)cn1 [Compound 227, 4-[5-(2-aminoethyl)pyridin-2-yl]-3-[2-methyl-5-(oxan-4-yl)pyrazol-3-yl]oxybenzonitrile]"
16,> 1 µM,"Cc1nc(Oc2cc(C#N)ccc2-n2cc(N3CCCNCC3=O)cn2)cc(C2CCCC2)n1 [Compound 209, 3-(6-cyclopentyl-2-methylpyrimidin-4-yl)oxy-4-[4-(2-oxo-1,4-diazepan-1-yl)pyrazol-1-yl]benzonitrile]"
17,< 0.01 µM,"Cn1nc(N2CCOCC2)cc1Oc1cc(C#N)ccc1-c1ccc(CN)cn1 [compound 773, 4-[5-(aminomethyl)pyridin-2-yl]-3-(2-methyl-5-morpholin-4-ylpyrazol-3-yl)oxybenzonitrile]"
18,> 1 µM,"Cc1nn(CC(F)(F)F)c(C)c1Oc1cc(C#N)ccc1-c1ncc(CCN)cn1 [compound 943, 4-[5-(2-aminoethyl)pyrimidin-2-yl]-3-[3,5-dimethyl-1-(2,2,2-trifluoroethyl)pyrazol-4-yl]oxybenzonitrile]"
19,0.01 to 1 µM,"N#Cc1ccc(-c2ccc(CCN)cc2)c(C(=O)c2nnc(N3CCOCC3)s2)c1 [compound 1088, 4-[4-(2-aminoethyl)phenyl]-3-(5-morpholin-4-yl-1,3,4-thiadiazole-2-carbonyl)benzonitrile]"
20,> 1 µM,"N#Cc1ccc(-n2cc(C(O)CN)cn2)c(Cn2cnc(-c3ccccc3)c2)c1 (stereo not shown) [compound 1127, 4-[4-(2-amino-1-hydroxyethyl)pyrazol-1-yl]-3-[(4-phenylimidazol-1 yl)methyl]benzonitrile]"
21,0.01 to 1 µM,"Cn1nc(-c2ccccn2)cc1Oc1cc(C#N)ccc1-c1ccc(C(C)(C)N)cn1 [compound 395, 4-[5-(2-aminopropan-2-yl)pyridin-2-yl]-3-(2-methyl-5-pyridin-2-ylpyrazol-3-yl)oxybenzonitrile]"
22,< 0.01 µM,"Cc1nc(Oc2cc(C#N)ccc2-n2cc([C@@H](O)CN)cn2)cc(-c2ccccc2)n1 [Compound 170, 4-[4-[(1R)-2-Amino-1-hydroxyethyl]pyrazol-1-yl]-3-(2-methyl-6-phenylpyrimidin-4-yl)oxybenzonitrile]"
23,0.01 to 1 µM,"Cc1cc(Oc2nc(C#N)ccc2-c2ccc(CCN)cn2)cc(N2CCCC2)n1 [compound 1282, 5-[5-(2-aminoethyl)pyridin-2-yl]-6-(2-methyl-6-pyrrolidin-1-ylpyridin-4-yl)oxypyridine-2-carbonitrile]"
24,< 0.01 µM,"Cn1nc(C(F)F)cc1Oc1cc(C#N)ccc1-c1ncc(CCN)cn1 [compound 384, 4-[5-(2-aminoethyl)pyrimidin-2-yl]-3-[5-(difluoromethyl)-2-methylpyrazol-3-yl]oxybenzonitrile]"
25,> 1 µM,"Cc1nc(Oc2cc(C#N)ccc2-n2cc3c(n2)CNCC3)cc(N2CCCCC2)n1 [compound 746, 3-(2-methyl-6-piperidin-1-ylpyrimidin-4-yl)oxy-4-(4,5,6,7-tetrahydropyrazolo[3,4-c]pyridin-2-yl)benzonitrile]"
26,< 0.01 µM,"Cc1nc(Oc2cc(C#N)ccc2-c2ccc(C(C)CN)cc2)cc(N2CCOCC2)n1 (stereo not shown) [Compound 62, 4-[4-(1-aminopropan-2-yl)phenyl]-3-(2-methyl-6-morpholin-4-ylpyrimidin-4-yl)oxybenzonitrile]"
27,< 0.01 µM,"CCN(C)c1cc(Oc2cc(C#N)ccc2-c2ncc(CCN)cn2)nc(C)n1 [compound 854, 4-[5-(2-aminoethyl)pyrimidin-2-yl]-3-[6-[ethyl(methyl)amino]-2-methylpyrimidin-4-yl]oxybenzonitrile]"
28,0.01 to 1 µM,"CN(C)c1cc(Cc2cc(C#N)ccc2-c2ncc(CCN)cn2)n(C)n1 [compound 1216, 4-[5-(2-aminoethyl)pyrimidin-2-yl]-3-[[5-(dimethylamino)-2-methylpyrazol-3-yl]methyl]benzonitrile]"
